Reference: patent publication US4978666A, “Optically active piperazine derivative” (Nippon Chemiphar Co., Ltd., priority 1988, dated 1990)
Where a name gives a salt, the structure may show the parent alone.

Assays:
Assay type in all cases: in vivo
[1] = Acute toxicity (oral LD50 in rats); settings: rat, in vivo, po, SD-strain female rats 150 to 200 g, observed for 2 weeks
Description: (§1) The peripheral vasodilating effect (action for increase of blood flow of vertebrae) and acute toxicity of (-)-1-(3,4-dimethoxyphenyl)-2-(4-diphenylmethylpiperazinyl)ethanol dihydrochloride according to the invention, (+)-1-(3,4-dimethoxyphenyl)-2-(4-diphenylmethylpiperazinyl)ethanol dihydrochloride, and (±)-1-(3,4-dimethoxyphenyl)-2-(4-diphenylmethylpiperazinyl)ethanol dihydrochloride are illustrated by the following examples.
(§2) Each of the (-)-, (+)- and (±)-piperazine derivatives were orally administered to SD-strain female rats each having a body weight of 150 to 200 g.

vertebral blood flow = experiment: Peripheral vasodilating effect (vertebral blood flow increase in anesthetized dogs); settings: i.v., anesthetized mongrel dogs
Description: as §1
Mongrel Dogs of both sexes each weighing about 10 kg were anesthetized with sodium pentobarbital (35 mg/kg, i.v.). Artificial respiration was performed with room air. The vertebral blood flow and femoral blood flow were measured by an electromagnetic flowmeter (avilable from Nihon Koden, MF-27 and MFV-1100) with flow probes. The blood pressure and heart rate were measured at the same time. […]

SD-strain female rats = experiment: Acute toxicity (oral LD50 in rats); settings: SD-strain female rats 150 to 200 g, observed for 2 weeks, 20160 min, dihydrochloride
Description: as §1, §2

[2] = Concentration in blood after administration to beagle dogs; settings: as compared with administration of the (+)-derivative

Compound	LD50 at 336 h [1] [mg/kg]	Percentage of vertebral blood flow increase (vertebral blood flow; 0.03 mg/kg) [%]	Percentage of vertebral blood flow increase (vertebral blood flow; 0.1 mg/kg) [%]	LD50 (SD-strain female rats) [mg/kg]	Percentage of vertebral blood flow increase (vertebral blood flow; 0.03 mg/kg, dihydrochloride) [%]	Percentage of vertebral blood flow increase (vertebral blood flow; 0.1 mg/kg, dihydrochloride) [%]	concentration in blood (determined from an area of a measured blood concentration curve) [2]
COc1ccc(C(O)CN2CCN(C(c3ccccc3)c3ccccc3)CC2)cc1OC (racemic) [(±)-Derivative, (±)-1-(3,4-dimethoxyphenyl)-2-(4-diphenylmethylpiperazinyl)ethanol dihydrochloride]	29.1	16.9	43.9	–	–	–	–
COc1ccc(C(O)CN2CCN(C(c3ccccc3)c3ccccc3)CC2)cc1OC (single isomer, unassigned; (+)) [(+)-Derivative, (+)-1-(3,4-dimethoxyphenyl)-2-(4-diphenylmethylpiperazinyl)ethanol dihydrochloride]	–	–	–	14.3	13.4	34.3	–
COc1ccc(C(O)CN2CCN(C(c3ccccc3)c3ccccc3)CC2)cc1OC (single isomer, unassigned; (-)) [(-)-Derivative, (-)-1-(3,4-dimethoxyphenyl)-2-(4-diphenylmethylpiperazinyl)ethanol dihydrochloride]	–	–	–	45.4	22.9	48.0	high concentration in blood
